Patent US20260109712A1, “RIFAMYCINS FOR NONTUBERCULOUS MYCOBACTERIA” (priority 2022, published 2026)
In brackets after ≈: the same amount, converted by molar mass. Read-outs that look alike come from different tables or passages of the source.

What was measured:
M. abscessus ATCC 19977 = test: MIC assay in 96-well plate format, wild-type strain; type: cell-based, Mycobacterium abscessus; conditions: for MICWT: Table 10; for MIC: Mycobacteroides abscessus, ATCC19977
Summary of the method: (§1)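 Two-fold, ten-point dilutions in 7H9 with 2% DMSO; mid-log culture diluted to OD600=0.1 (1×10^7 CFU/mL). Incubated 3 days at 37 °C, shaking 110 RPM; growth = Day 3 minus Day 0 OD600, expressed as percentage of drug-free growth and plotted against concentration. Two biological replicates.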

Δarr M. abscessus = test: MIC assay, isogenic arr-deleted strain; type: cell-based, Mycobacterium abscessus; conditions: Table 10
Summary of the method: as §1

[1] = Plasma protein binding assay (rapid equilibrium dialysis); type: in vitro ADME
Summary of the method: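 Plasma was spiked to 10,000 ng/mL compound and dialysed against PBS by rapid equilibrium dialysis for 4 h at 37° C with shaking at 300 RPM. Plasma and buffer aliquots were matrix-matched 1:1 […] and quantified by LC-MS/MS.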

Mycobacterium abscessus = test: MIC against Mycobacterium abscessus (strain not given); type: cell-based
CYP3A4 = conditions: human, 10 μM
Description: The threshold cycle (CT) was measured for each isoform cDNA by real time qRT-PCR. The mRNA level of each isoform was assessed by the relative quantifiation with reference gene (GAPDH) as the normalizer method. The normalized fold induction was calculated by 2^−ΔΔCT method, in which 0.1% DMSO was used as the reference (vehicle control). The induction potential of each test compound was analyzed by comparing its fold induction to a pre-determined cutoff value for each lot of hepatocytes. The hepatocytes lots used in this study were validated using 10 known inducers and 5 known non-inducers for each isozyme. A cutoff value is determined based on the validation study for each hepatocytes lot.

[2] = Mouse pharmacokinetics studies; type: in vivo, CD-1 mice; conditions: mouse, in vivo
Description: Blood was captured in CB300 blood collection tubes containing K2EDTA and stored on ice. Plasma was recovered after centrifugation and stored at −80° C. until analyzed by high pressure liquid chromatography coupled to tandem mass spectrometry (LC-MS/MS). Pharmacokinetic parameters were calculated using non-compartmental pharmacokinetic analysis. […] Extracts were vortexed for 5 minutes and centrifuged at 4000 RPM for 5 minutes. 75 μL of supernatant was transferred for LC-MS/MS analysis and diluted with 75 μL of Milli-Q deionized water. Rifabutin was purchased from Carbosynth. C25-desacetyl rifabutin and rifabutin-d7 were purchased from Toronto Research Chemical. Verapamil was purchased from Sigma-Aldrich. […] Multiple-reaction monitoring of parent/daughter transitions in electrospray positive-ionization mode was used to quantify all analytes. […] Data processing was performed using Analyst software (version 1.6.2; Applied Biosystems Sciex).

[3] = Mycobacteroides abscessus, 72 h, Table 22, read-out: MICMab
[4] = Table 15, heterocyclic aromatic carbamates, read-out: WT Mab MIC
[5] = Mycobacterium abscessus ATCC 19977, Table 11, read-out: MIC

Row | Compound | MICWT (M. abscessus ATCC 19977) [µM] | MICΔorr (Δarr M. abscessus) [µM] | MIC (Mycobacterium abscessus; [3]) [µM] | CYP3A4 gene fold-induction at 10 μM (CYP3A4) | ƒu [1] [%] | plasma unbound fraction ([1]; plasma) [%] | MIC (Mycobacterium abscessus; Table 13, read-out: Mab MIC) [µM] | other results
1 | CO[C@H]1/C=C/O[C@@]2(C)Oc3c(C)c(O)c4c(c3C2=O)C2=NC3(CCN(CC(C)C)CC3)NC2=C(NC(=O)/C(C)=C/C=C/[C@H](C)[C@H](O)[C@@H](C)[C@@H](O)[C@@H](C)[C@H](OC(=O)c2ccccc2)[C@@H]1C)C4=O [UMN7] | 0.053 | 0.059 | 0.053 (≈ 0.0482 µg/mL) | 8.6 |  |  |  | fraction unbound at 4 h, 10000 ng/mL ([1]; plasma): 0.0003
2 | CO[C@H]1/C=C/O[C@@]2(C)Oc3c(C)c(O)c4c(c3C2=O)C2=NC3(CCN(CC(C)C)CC3)NC2=C(NC(=O)/C(C)=C/C=C/[C@H](C)[C@H](O)[C@@H](C)[C@@H](O)[C@@H](C)[C@H](OC(=O)c2ccc(-c3ccccc3)cc2)[C@@H]1C)C4=O [UMN28] | 0.85 | 1.00 |  |  | 0 | 0 | 0.85 (≈ 0.837 µg/mL) | 
3 | CO[C@H]1/C=C/O[C@@]2(C)Oc3c(C)c(O)c4c(c3C2=O)C2=NC3(CCN(CC(C)C)CC3)NC2=C(NC(=O)/C(C)=C/C=C/[C@H](C)[C@H](O)[C@@H](C)[C@@H](O)[C@@H](C)[C@H](OC(=O)c2ccncc2)[C@@H]1C)C4=O [UMN47] | 0.017 | 0.017 |  |  | 2.0 | 2.00 | 0.017 (≈ 0.0155 µg/mL) | 
4 | CO[C@H]1/C=C/O[C@@]2(C)Oc3c(C)c(O)c4c(c3C2=O)C2=NC3(CCN(CC(C)C)CC3)NC2=C(NC(=O)/C(C)=C/C=C/[C@H](C)[C@H](O)[C@@H](C)[C@@H](O)[C@@H](C)[C@H](OC(=O)c2ccccn2)[C@@H]1C)C4=O [UMN48] | 0.02 | 0.026 |  |  | 3.0 | 2.95 | 0.02 (≈ 0.0182 µg/mL) | 
5 | CO[C@H]1/C=C/O[C@@]2(C)Oc3c(C)c(O)c4c(c3C2=O)C2=NC3(CCN(CC(C)C)CC3)NC2=C(NC(=O)/C(C)=C/C=C/[C@H](C)[C@H](O)[C@@H](C)[C@@H](O)[C@@H](C)[C@H](OC(=O)c2ccnnc2)[C@@H]1C)C4=O [UMN49] | 0.033 | 0.034 |  |  | 8.2 | 8.22 | 0.033 (≈ 0.0301 µg/mL) | 
6 | CO[C@H]1/C=C/O[C@@]2(C)Oc3c(C)c(O)c4c(c3C2=O)C2=NC3(CCN(CC(C)C)CC3)NC2=C(NC(=O)/C(C)=C/C=C/[C@H](C)[C@H](O)[C@@H](C)[C@@H](O)[C@@H](C)[C@H](OC(=O)c2ccncn2)[C@@H]1C)C4=O [UMN50] | 0.035 | 0.036 |  |  | 7.2 | 7.22 | 0.035 (≈ 0.0319 µg/mL) | 
7 | CO[C@H]1/C=C/O[C@@]2(C)Oc3c(C)c(O)c4c(c3C2=O)C2=NC3(CCN(CC(C)C)CC3)NC2=C(NC(=O)/C(C)=C/C=C/[C@H](C)[C@H](O)[C@@H](C)[C@@H](O)[C@@H](C)[C@H](OC(=O)c2cnccn2)[C@@H]1C)C4=O [UMN51] | 0.03 | 0.027 |  |  | 7.0 | 6.96 | 0.03 (≈ 0.0273 µg/mL) | 
8 | CO[C@H]1/C=C/O[C@@]2(C)Oc3c(C)c(O)c4c(c3C2=O)C2=NC3(CCN(CC(C)C)CC3)NC2=C(NC(=O)/C(C)=C/C=C/[C@H](C)[C@H](O)[C@@H](C)[C@@H](O)[C@@H](C)[C@H](OC(=O)C2CCC2)[C@@H]1C)C4=O [UMN80] | 1.2 | 0.026 |  |  | 0.3 | 0.29 | 1.2 (≈ 1.06 µg/mL) | 
9 | CO[C@H]1/C=C/O[C@@]2(C)Oc3c(C)c(O)c4c(c3C2=O)C2=NC3(CCN(CC(C)C)CC3)NC2=C(NC(=O)/C(C)=C/C=C/[C@H](C)[C@H](O)[C@@H](C)[C@@H](O)[C@@H](C)[C@H](OC(=O)C2CCCC2)[C@@H]1C)C4=O [UMN81] | 1.2 | 0.03 |  |  | 0.05 | 0.05 | 1.2 (≈ 1.08 µg/mL) | 
10 | CO[C@H]1/C=C/O[C@@]2(C)Oc3c(C)c(O)c4c(c3C2=O)C2=NC3(CCN(CC(C)C)CC3)NC2=C(NC(=O)/C(C)=C/C=C/[C@H](C)[C@H](O)[C@@H](C)[C@@H](O)[C@@H](C)[C@H](OC(=O)C2CCCCC2)[C@@H]1C)C4=O [UMN82] | 0.54 | 0.05 |  |  | 0.03 | 0.03 | 1.1 (≈ 1.01 µg/mL) | 
11 | CO[C@H]1/C=C/O[C@@]2(C)Oc3c(C)c(O)c4c(c3C2=O)C2=NC3(CCN(CC(C)C)CC3)NC2=C(NC(=O)/C(C)=C/C=C/[C@H](C)[C@H](O)[C@@H](C)[C@@H](O)[C@@H](C)[C@H](OC(=O)c2cscn2)[C@@H]1C)C4=O [UMN94] |  |  |  |  | 2.9 |  | 0.036 (≈ 0.033 µg/mL) | CL [2]: 5.0 mL/min/kg; F [2]: 77%; Vd [2]: 1.22 L/kg; ƒAUC/MIC [2]: 22.4; AUCp.o. ([2]; po): 25765 ng·h/mL
12 | CO[C@H]1/C=C/O[C@@]2(C)Oc3c(C)c(O)c4c(c3C2=O)C2=NC3(CCN(CC(C)C)CC3)NC2=C(NC(=O)/C(C)=C/C=C/[C@H](C)[C@H](O)[C@@H](C)[C@@H](O)[C@@H](C)[C@H](OC(=O)Nc2ccncn2)[C@@H]1C)C4=O [UMN118] |  |  | 0.032 (≈ 0.0296 µg/mL) | 2.0 |  |  |  | MIC (M. abscessus ATCC 19977; [4]): 0.032 µM (≈ 0.0296 µg/mL); ƒu ([1]; 4 h, 10000 ng/mL): 5.1%
13 | CO[C@H]1/C=C/O[C@@]2(C)Oc3c(C)c(O)c4c(c3C2=O)C2=NC3(CCN(CC(C)C)CC3)NC2=C(NC(=O)/C(C)=C/C=C/[C@H](C)[C@H](O)[C@@H](C)[C@@H](O)[C@@H](C)[C@H](OC(=O)Nc2cccnn2)[C@@H]1C)C4=O [UMN121] |  |  | 0.038 (≈ 0.0352 µg/mL) | 2.7 |  |  |  | MIC (M. abscessus ATCC 19977; [5]): 0.038 µM (≈ 0.0352 µg/mL)
14 | CO[C@H]1/C=C/O[C@@]2(C)Oc3c(C)c(O)c4c(c3C2=O)C2=NC3(CCN(CC(C)C)CC3)NC2=C(NC(=O)/C(C)=C/C=C/[C@H](C)[C@H](O)[C@@H](C)[C@@H](O)[C@@H](C)[C@H](OC(=O)Nc2ccn3nccc3c2)[C@@H]1C)C4=O [UMN123] |  |  | 0.051 (≈ 0.0492 µg/mL) | 1.2 |  |  |  | 
15 | CO[C@H]1/C=C/O[C@@]2(C)Oc3c(C)c(O)c4c(c3C2=O)C2=NC3(CCN(CC(C)C)CC3)NC2=C(NC(=O)/C(C)=C/C=C/[C@H](C)[C@H](O)[C@@H](C)[C@@H](O)[C@@H](C)[C@H](OC(=O)Nc2cccn3ccnc23)[C@@H]1C)C4=O [UMN125] |  |  | 0.03 (≈ 0.0289 µg/mL) | 3.6 |  |  |  | 
16 | CO[C@H]1/C=C/O[C@@]2(C)Oc3c(C)c(O)c4c(c3C2=O)C2=NC3(CCN(CC(C)C)CC3)NC2=C(NC(=O)/C(C)=C/C=C/[C@H](C)[C@H](O)[C@@H](C)[C@@H](O)[C@@H](C)[C@H](OC(=O)Nc2c(C)nc3ccccn23)[C@@H]1C)C4=O [UMN131] |  |  | 0.049 (≈ 0.0479 µg/mL) | 3.0 |  |  |  | MIC (M. abscessus ATCC 19977; [5]): 0.049 µM (≈ 0.0479 µg/mL)
17 | CO[C@H]1/C=C/O[C@@]2(C)Oc3c(C)c(O)c4c(c3C2=O)C2=NC3(CCN(CC(C)C)CC3)NC2=C(NC(=O)/C(C)=C/C=C/[C@H](C)[C@H](O)[C@@H](C)[C@@H](O)[C@@H](C)[C@H](OC(=O)Nc2cscn2)[C@@H]1C)C4=O [UMN132] |  |  | 0.026 (≈ 0.0242 µg/mL) | 1.4 |  |  |  | MIC (M. abscessus ATCC 19977; [4]): 0.026 µM (≈ 0.0242 µg/mL); ƒu ([1]; 4 h, 10000 ng/mL): 1.7%
18 | CO[C@H]1/C=C/O[C@@]2(C)Oc3c(C)c(O)c4c(c3C2=O)C2=NC3(CCN(CC(C)C)CC3)NC2=C(NC(=O)/C(C)=C/C=C/[C@H](C)[C@H](O)[C@@H](C)[C@@H](O)[C@@H](C)[C@H](OC(=O)Nc2cncs2)[C@@H]1C)C4=O [UMN133] |  |  | 0.046 (≈ 0.0428 µg/mL) | 1.7 |  |  |  | MIC (M. abscessus ATCC 19977; [4]): 0.046 µM (≈ 0.0428 µg/mL); ƒu ([1]; 4 h, 10000 ng/mL): 3.0%
